Patent publication US5026848A, “Novel generation of heteroaryloxyalkyl heterocycles with antipicornaviruses activities” (Synphar Laboratories Incorporated, priority 1988, dated 1991)
≈ marks a conversion by molar mass, not a printed value.

Legend:
[1] = test system: Rhinovirus 36; experiment: Anti-rhinovirus activity, cytopathic effect inhibition / neutral red dye uptake, type 36; type: cell-based; conditions: Enterovirus, WI-38; Table II; read-out: MIC 50 Rhinovirus Type 36
[2] = test system: Rhinovirus 32; experiment: Anti-rhinovirus activity, cytopathic effect inhibition / neutral red dye uptake, type 32; type: cell-based; conditions: Enterovirus, WI-38; Table II; read-out: MIC 50 Rhinovirus Type 32
[3] = test system: Rhinovirus 4; experiment: Anti-rhinovirus activity, cytopathic effect inhibition / neutral red dye uptake, type 4; type: cell-based; conditions: Enterovirus, WI-38; Table II; one of seven commonest serotypes; read-out: MIC 50 Rhinovirus Type 4
[4] = test system: Rhinovirus 1B; experiment: Anti-rhinovirus activity, cytopathic effect inhibition / neutral red dye uptake, type 1B; type: cell-based; conditions: Enterovirus, WI-38; Table II; one of seven commonest serotypes; read-out: MIC 50 Rhinovirus Type 1B
[5] = test system: Enterovirus serotypes; type: cell-based
[6] = test system: Rhinovirus 17; experiment: Anti-rhinovirus activity, cytopathic effect inhibition / neutral red dye uptake, type 17; type: cell-based; conditions: Enterovirus, WI-38; Table II; read-out: MIC 50 Rhinovirus Type 17
[7] = test system: Rhinovirus 15; experiment: Anti-rhinovirus activity, cytopathic effect inhibition / neutral red dye uptake, type 15; type: cell-based; conditions: Enterovirus, WI-38; Table II; one of seven commonest serotypes; read-out: MIC 50 Rhinovirus Type 15
[8] = test system: Coxsacki-B1; experiment: Activity against other picornaviruses, Coxsacki-B1; type: cell-based; conditions: Enterovirus, read-out: MIC 50 Cox. B1
[9] = test system: Rhinovirus 29; experiment: Anti-rhinovirus activity, cytopathic effect inhibition / neutral red dye uptake, type 29; type: cell-based; conditions: Enterovirus, WI-38; Table II; one of seven commonest serotypes; read-out: MIC 50 Rhinovirus Type 29
[10] = test system: Rhinovirus 1A; experiment: Anti-rhinovirus activity, cytopathic effect inhibition / neutral red dye uptake, type 1A; type: cell-based; conditions: Enterovirus, WI-38; Table I; WI38 cells, 33° C., 3-4 days; NA = Not active; read-out: MIC50 Rhinovirus 1A
[11] = test system: Rhinovirus 63; experiment: Anti-rhinovirus activity, cytopathic effect inhibition / neutral red dye uptake, type 63; type: cell-based; conditions: Enterovirus, WI-38; Table II; read-out: MIC 50 Rhinovirus Type 63
[12] = test system: Rhinovirus 56; experiment: Anti-rhinovirus activity, cytopathic effect inhibition / neutral red dye uptake, type 56; type: cell-based; conditions: Enterovirus, WI-38; Table II; read-out: MIC 50 Rhinovirus Type 56
[13] = test system: 20 serotypes of rhinovirus; experiment: Anti-rhinovirus activity against a panel of 20 serotypes; conditions: Table II; numerator; denominator 20, but 10 for compound 8 and 6 for compound 30
[14] = test system: Rhinovirus 88; experiment: Anti-rhinovirus activity, cytopathic effect inhibition / neutral red dye uptake, type 88; type: cell-based; conditions: Enterovirus, WI-38; Table II; read-out: MIC 50 Rhinovirus Type 88
[15] = test system: Polio 1; experiment: microbe, parasite or virus in culture; type: cell-based; conditions: Enterovirus, read-out: MIC 50 Polio 1
[16] = test system: Echo-11; experiment: Activity against other picornaviruses, Echo-11; type: cell-based; conditions: Enterovirus, read-out: MIC 50 Echo 11
[17] = test system: WI38 cells; experiment: Toxicity to WI38 cells (change in morphology in / growth inhibition of 25% of the cells); type: cell-based
[18] = test system: Rhinovirus 31; experiment: Anti-rhinovirus activity, cytopathic effect inhibition / neutral red dye uptake, type 31; type: cell-based; conditions: Enterovirus, WI-38; Table II; one of seven commonest serotypes; read-out: MIC 50 Rhinovirus Type 31
[19] = test system: Rhinovirus 86; experiment: Anti-rhinovirus activity, cytopathic effect inhibition / neutral red dye uptake, type 86; type: cell-based; conditions: Enterovirus, WI-38; Table II; read-out: MIC 50 Rhinovirus Type 86
[20] = test system: Rhinovirus 49; experiment: Anti-rhinovirus activity, cytopathic effect inhibition / neutral red dye uptake, type 49; type: cell-based; conditions: Enterovirus, WI-38; Table II; read-out: MIC 50 Rhinovirus Type 49
[21] = test system: Coxsacki-A9; experiment: Activity against other picornaviruses, Coxsacki-A9; type: cell-based; conditions: Enterovirus, read-out: MIC 50 Cox. A9
[22] = test system: Coxsacki-B4; experiment: Activity against other picornaviruses, Coxsacki-B4; type: cell-based; conditions: Enterovirus, read-out: MIC 50 Cox. B4
[23] = test system: Rhinovirus 2; experiment: Anti-rhinovirus activity, cytopathic effect inhibition / neutral red dye uptake, type 2; type: cell-based; conditions: Enterovirus, WI-38; Table II; one of seven commonest serotypes; read-out: MIC 50 Rhinovirus Type 2
[24] = test system: Rhinovirus 23; experiment: Anti-rhinovirus activity, cytopathic effect inhibition / neutral red dye uptake, type 23; type: cell-based; conditions: Enterovirus, WI-38; Table II; read-out: MIC 50 Rhinovirus Type 23
[25] = test system: Rhinovirus 53; experiment: Anti-rhinovirus activity, cytopathic effect inhibition / neutral red dye uptake, type 53; type: cell-based; conditions: Enterovirus, WI-38; Table II; read-out: MIC 50 Rhinovirus Type 53
[26] = test system: Rhinovirus 39; experiment: Anti-rhinovirus activity, cytopathic effect inhibition / neutral red dye uptake, type 39; type: cell-based; conditions: Enterovirus, WI-38; Table I; WI38 cells, 33° C., 3-4 days; read-out: MIC50 Rhinovirus 39
[27] = test system: HRV-1A and HRV-39; experiment: Anti-rhinovirus activity against HRV-1A and HRV-39; conditions: in words
[28] = test system: Rhinovirus 44; experiment: Anti-rhinovirus activity, cytopathic effect inhibition / neutral red dye uptake, type 44; type: cell-based; conditions: Enterovirus, WI-38; Table II; read-out: MIC 50 Rhinovirus Type 44
[29] = test system: Echo-7; experiment: Activity against other picornaviruses, Echo-7; type: cell-based; conditions: Enterovirus, read-out: MIC 50 Echo 7
[30] = test system: Rhinovirus 30; experiment: Anti-rhinovirus activity, cytopathic effect inhibition / neutral red dye uptake, type 30; type: cell-based; conditions: Enterovirus, WI-38; Table II; read-out: MIC 50 Rhinovirus Type 30
[31] = test system: Coxsacki-A21; experiment: Activity against other picornaviruses, Coxsacki-A21; type: cell-based; conditions: Enterovirus, read-out: MIC 50 Cox. A21

With `c1ccc2c(c1)oc1ccc(OCCCCCCc3ccns3)cc12` [Compound 25] the EC50 [1] was over 25 µg/mL, the EC50 [2] was 10 µg/mL (≈ 28.5 µM) and the IC50 [3] was over 25 µg/mL. The IC50 [4] was 5 µg/mL (≈ 14.2 µM), the “inhibitory activity against the members of the Entero virus family” value [5] was “remarkable inhibitory activity” and the “All Enterovirus Serotypes (number of serotypes active / tested)” value ([5]; Table III, numerator, denominator 7, but 5 for compound 8) was 4. The IC50 [6] was 10 µg/mL (≈ 28.5 µM), the IC50 [7] was 10 µg/mL (≈ 28.5 µM) and the IC50 [8] was over 25 µg/mL. For the same compound, the IC50 [9] was 5 µg/mL (≈ 14.2 µM), the EC50 [10] was 10 µg/mL (≈ 28.5 µM) and the EC50 [11] was 5 µg/mL (≈ 14.2 µM). For the same compound, the EC50 [12] was 10 µg/mL (≈ 28.5 µM), the “All Rhinovirus Serotypes (number of serotypes active / tested)” value [13] was 16 and the EC50 [14] was 10 µg/mL (≈ 28.5 µM). The EC50 [15] was 10 µg/mL (≈ 28.5 µM), the IC50 [16] was over 25 µg/mL and the Toxicity ([17]; Table I, concentration with change in morphology in 25% of WI38 cells) was 50 µg/mL. The Toxicity ([17]; Table II) was 50 µg/mL, the Toxicity ([17]; Table III) was 50 µg/mL and the EC50 [18] was over 25 µg/mL. It also gave an EC50 [19] of 10 µg/mL (≈ 28.5 µM), an EC50 [20] of over 25 µg/mL and an EC50 [21] of 10 µg/mL (≈ 28.5 µM). The IC50 [22] was over 25 µg/mL, the IC50 [23] was 20 µg/mL (≈ 56.9 µM) and the IC50 [24] was 5 µg/mL (≈ 14.2 µM). For the same compound, the EC50 [25] was 10 µg/mL (≈ 28.5 µM), the EC50 [26] was 5 µg/mL (≈ 14.2 µM) and the “inhibitory activity against HRV-1A and HRV-39 in vitro” value [27] was “remarkably inhibitory activity”. For the same compound, the EC50 [28] was 5 µg/mL (≈ 14.2 µM), the IC50 [29] was 5 µg/mL (≈ 14.2 µM) and the IC50 [30] was 10 µg/mL (≈ 28.5 µM). The IC50 [31] was 5 µg/mL (≈ 14.2 µM).
